Experiments:
NF-κB = experiment: RANKL-induced NF-κB activation in RAW264.7 cells (gel mobility shift assay); type: cell-based, mouse; conditions: peptide pre-treatment 5 h, RANKL 10 nM 15 min (FIG. 4A)
Method: (§1) RAW264.7 cells were plated in 6-well plates and treated with the indicated peptides for 5 h, then treated with RANKL (10 nM) for 15 mm. Nuclear and cytoplasmic extracts were prepared and a gel mobility shift assays was performed with 8 μg of nuclear extracts as described below.
Nuclear extracts were prepared from transfected cells essentially as described (34). Equivalent amounts of nuclear protein were used in an EMSA reaction with ^32P-labeled NF-κB oligonucleotide from HIV-LTR as described (34). NF-κB activation was quantitated using a PhosphoImager and Imagequant Software.
A mutant form of the receptor activator of NF-κB which contains only the TRAF6 binding domain is sufficient to activate NF-κB (8), and a dominant negative TRAF6 inhibits RANK-mediated NF-κB activation in 293 cells (9). To investigate the effect of the TRAF6 binding peptides on RANKL-induced NF-κB activation, NF-κB activation was examined in RAW264.7 cells that activated NF-κB when stimulated with RANKL (37). RANKL-stimulated RAW264.7 cells activated NF-κB as indicated by a gel mobility shift assay (FIG. 4A).

IκB = IκB degradation in RANKL-treated RAW264.7 cells (anti-IκB immunoblot); type: cell-based, mouse; conditions: cytoplasmic extracts of RAW264.7 cells from FIG. 4A (FIG. 4B)
Method: as §1
Cytoplasmic extracts (30 μg) from FIG. 4A were immunoblotted with anti-IκB as described below.
293 cells were plated at 0.6×10^6 cells/well on 6-well plates and transfected the next day as described (8). Total amount of plasmid DNA was kept constant by adding empty pCMVFLAG1 vector. Cells and the conditioned supernatants were harvested 24-36 h after transfection. Lysates were prepared as described (8). For western blot analysis, whole-cell lysates (15-30 μg) or proteins from GST-affinity precipitation were separated by 8.5% SDS-PAGE, electroblotted onto nitrocellulose membranes, and incubated with the indicated antibodies. The membranes were then developed using the enhanced chemiluminescence (ECL) system (Amersham, Chicago, Ill.).

[1] = target: T1, TRAF2 binding to the cytoplasmic domain of RANK (Homo sapiens, UniProt Q12933); experiment: Competitive GST-pull down assay, TRAF2 binding to RANK cytoplasmic domain; conditions: 100 μM peptide, FLAG-TRAF2 293 cell extract (FIG. 4C)
T1 construct: expressed in transfected cells; host or cells: human 293 cells (TRAF lysate); The GST-RANK fusion was purified as previously described
T1 sequence (Q12933 1-501): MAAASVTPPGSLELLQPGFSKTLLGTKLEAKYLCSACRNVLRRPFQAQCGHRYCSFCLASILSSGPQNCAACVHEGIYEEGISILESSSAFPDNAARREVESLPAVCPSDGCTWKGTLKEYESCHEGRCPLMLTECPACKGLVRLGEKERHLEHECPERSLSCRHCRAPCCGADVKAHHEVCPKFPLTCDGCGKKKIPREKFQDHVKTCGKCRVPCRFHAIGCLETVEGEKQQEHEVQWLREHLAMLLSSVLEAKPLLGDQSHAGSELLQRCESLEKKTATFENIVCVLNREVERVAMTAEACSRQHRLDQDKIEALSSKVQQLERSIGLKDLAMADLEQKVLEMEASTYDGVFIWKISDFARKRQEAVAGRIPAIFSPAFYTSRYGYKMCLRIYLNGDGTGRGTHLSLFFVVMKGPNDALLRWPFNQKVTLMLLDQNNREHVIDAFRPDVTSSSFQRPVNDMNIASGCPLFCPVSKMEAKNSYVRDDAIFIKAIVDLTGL
Method: Cellular extracts from human 293 cells transfected with either FLAG-TRAF2, -TRAF5, or -TRAF6 were mixed with GST or GST-RANKed in the absence or presence of 100 μM of the indicated peptides. A GST-pull down assay was performed as described below. The bound TRAFs were visualized by immunoblotting with anti-FLAG antibodies.
Equivalent amounts of GST or GST-RANK cytoplasmic domain (GST-RANKed) fusion protein attached to 20 μl of glutathione agarose beads were mixed with lysates (50 μg) from 293 cells programmed to express the epitope-tagged TRAF protein and the indicated peptides in binding buffer (20 mM TRIS, pH 8, 150 mM NaCl, 1 mM DTT, 2 mM EDTA, and 0.1% NP-40) and allowed to rotate for 1 h at 4° C. The beads were collected by centrifugation, washed three times in binding buffer, and then washed once in low-salt buffer (20 mM TRIS, pH 8, 50 mM NaCl, and 1 mM DTT). Bound proteins were eluted with addition of SDS-sample buffer and boiled. The eluted proteins were subjected to 7.5% SDS-PAGE and western blot analysis was performed with anti-FLAG antibodies.
The cytoplasmic domain of RANK interacts with many TRAF molecules, including TRAF1, 2, 3, 5, and 6 (7-9, 11, 12). While TRAF1, 2, 3, and 5 interact with the c-terminal tail of receptor activator of NF-κB, TRAF6 interacts with a membrane proximal region of the cytoplasmic domain of the receptor activator of NF-κB. […]

## L-T6DP-1: Kaposi fibroblast growth factor signal sequence hydrophobic domain attached to murine RANK peptide containing the known TRAF6 binding domain (AAVALLPAVLLALLAPRKIPTEDEYTDRPSQPST; PEPTIDE Peptide L-T6Bp-1)
NF-κB
  RANKL-induced NF-κB activation: suppressed in a dose-dependent manner
IκB
  IκB degradation: inhibition
[1]
  TRAF2 binding to the cytoplasmic domain of RANK: neither L-T6DP-1 nor L-T6DP-2 inhibited

Source: patent publication US6998383B2, “Inhibitors of receptor activator of NF-κB and uses thereof” (Research Development Corporation, priority 2001, dated 2006)
